Values of other authors as cited in patent publication US20070197640A1, “Certain chemical entities, compositions, and methods” (Cytokinetics, Inc., priority 2005, published 2007).

Test system: A549 cells
Settings: data provided by National Cancer Institute, Developmental Therapeutic Program

Row | Structure (SMILES) | GI50
1 | COc1cccc2c1C(=O)c1c(O)c3c(c(O)c1C2=O)C[C@@](O)(C(=O)CO)C[C@@H]3O[C@H]1C[C@H](N)[C@H](O)[C@H](C)O1 [doxorubicin] | 63 nM
2 | O=c1[nH]cc(F)c(=O)[nH]1 [5-fluorouracil] | 1000 nM
3 | CC(=O)O[C@H]1C(=O)[C@@]2(C)[C@H]([C@H](OC(=O)c3ccccc3)[C@]3(O)C[C@H](OC(=O)[C@H](O)[C@@H](NC(=O)c4ccccc4)c4ccccc4)C(C)=C1C3(C)C)[C@]1(OC(C)=O)CO[C@@H]1C[C@@H]2O [paclitaxel] | 4 nM
4 | NC(=O)NO [hydroxyurea] | 500000 nM
